Data published in ChEMBL document CHEMBL3885881, “DrugMatrix”.

Organism: Rattus norvegicus
Assay: DrugMatrix - Regimen: Daily Repeat
Type: toxicity, organism-based, Sprague-Dawley
Set-up: regimen Daily Repeat, gender Male, age 6-8 weeks
Details: in vivo, po, route oral GAVAGE, vehicle 60 % PEG400; for ABSOLUTE BASOPHIL / ABSOLUTE EOSINOPHIL / ABSOLUTE LYMPHOCYTE / ABSOLUTE MONOCYTE / ABSOLUTE SEGMENTED NEUTROPHIL / BASOPHIL / EOSINOPHIL / ERYTHROCYTE COUNT / HEMATOCRIT / HEMOGLOBIN / LEUKOCYTE COUNT / LYMPHOCYTE / MEAN CORPUSCULAR HEMOGLOBIN / MEAN CORPUSCULAR HEMOGLOBIN CONCENTRATION / MEAN CORPUSCULAR VOLUME / MONOCYTE / NEUTROPHIL / NUCLEATED RED BLOOD CELLS / PLATELET COUNT: tissue Blood; for ALANINE AMINOTRANSFERASE / ALBUMIN / ALKALINE PHOSPHATASE / ASPARTATE AMINOTRANSFERASE / BLOOD UREA NITROGEN / CARBON DIOXIDE / CHLORIDE / CHOLESTEROL / CREATINE PHOSPHOKINASE / CREATININE / GLUCOSE / LACTATE DEHYDROGENASE / LIPASE / PHOSPHORUS / POTASSIUM / SODIUM / TOTAL BILIRUBIN / TOTAL PROTEIN / URIC ACID: tissue Plasma
[1] = 0 mg/kg, 72 h, dose level Control, time 3 day
[2] = 0 mg/kg, 120 h, dose level Control, time 5 day
[3] = 0.001 mg/kg, 72 h, dose level Low, time 3 day

## N[C@@H](Cc1cc(I)c(Oc2ccc(O)c(I)c2)c(I)c1)C(=O)O [LIOTHYRONINE]
[1]
  ABSOLUTE BASOPHIL: 0 CELLS/uL
  ABSOLUTE EOSINOPHIL: 48.67 CELLS/uL
  ABSOLUTE LYMPHOCYTE: 11723.33 CELLS/uL
  ABSOLUTE MONOCYTE: 132.67 CELLS/uL
  ABSOLUTE SEGMENTED NEUTROPHIL: 1362 CELLS/uL
  BASOPHIL: 0%
  EOSINOPHIL: 0.33%
  ERYTHROCYTE COUNT: 5.61 x10E6/uL
  HEMATOCRIT: 33.53%
  HEMOGLOBIN: 13.13 G/DL
  LEUKOCYTE COUNT: 13.27 x10E3/uL
  LYMPHOCYTE: 88.33%
  MEAN CORPUSCULAR HEMOGLOBIN: 23.4 pg
  MEAN CORPUSCULAR HEMOGLOBIN CONCENTRATION: 39.17 G/DL
  MEAN CORPUSCULAR VOLUME: 59.8 fL
  MONOCYTE: 1%
  NEUTROPHIL: 10.33%
  NUCLEATED RED BLOOD CELLS: 0.67 /100WBC
  PLATELET COUNT: 967.33 x10E3/uL
  ALANINE AMINOTRANSFERASE: 60.33 u/L
  ALBUMIN: 4.3 G/DL
  ALKALINE PHOSPHATASE: 403.33 u/L
  ASPARTATE AMINOTRANSFERASE: 87 u/L
  BLOOD UREA NITROGEN: 14.67 mg/dL
  CARBON DIOXIDE: 31 mmol/L
  CHLORIDE: 103 MEQ/L
  CHOLESTEROL: 82.33 mg/dL
  CREATINE PHOSPHOKINASE: 376.33 u/L
  CREATININE: 0.17 mg/dL
  GLUCOSE: 146.33 mg/dL
  LACTATE DEHYDROGENASE: 196.33 u/L
  LIPASE: 12.33 u/L
  PHOSPHORUS: 11.43 mg/dL
  POTASSIUM: 6.79 MEQ/L
  SODIUM: 147.27 MEQ/L
  TOTAL BILIRUBIN: 0.2 mg/dL
  TOTAL PROTEIN: 6.13 G/DL
  URIC ACID: 1.33 mg/dL
[2]
  ABSOLUTE BASOPHIL: 0 CELLS/uL
  ABSOLUTE EOSINOPHIL: 19 CELLS/uL
  ABSOLUTE LYMPHOCYTE: 4849 CELLS/uL
  ABSOLUTE MONOCYTE: 38 CELLS/uL
  ABSOLUTE SEGMENTED NEUTROPHIL: 660.67 CELLS/uL
  BASOPHIL: 0%
  EOSINOPHIL: 0.33%
  ERYTHROCYTE COUNT: 4.95 x10E6/uL
  HEMATOCRIT: 29.67%
  HEMOGLOBIN: 11.53 G/DL
  LEUKOCYTE COUNT: 5.57 x10E3/uL
  LYMPHOCYTE: 87.67%
  MEAN CORPUSCULAR HEMOGLOBIN: 23.33 pg
  MEAN CORPUSCULAR HEMOGLOBIN CONCENTRATION: 38.9 G/DL
  MEAN CORPUSCULAR VOLUME: 59.87 fL
  MONOCYTE: 0.67%
  NEUTROPHIL: 11.33%
  NUCLEATED RED BLOOD CELLS: 0.33 /100WBC
  PLATELET COUNT: 653.33 x10E3/uL
  ALANINE AMINOTRANSFERASE: 48.33 u/L
  ALBUMIN: 4.27 G/DL
  ALKALINE PHOSPHATASE: 396 u/L
  ASPARTATE AMINOTRANSFERASE: 75.67 u/L
  BLOOD UREA NITROGEN: 15 mg/dL
  CARBON DIOXIDE: 31.33 mmol/L
  CHLORIDE: 103 MEQ/L
  CHOLESTEROL: 76.33 mg/dL
  CREATINE PHOSPHOKINASE: 182.67 u/L
  CREATININE: 0.2 mg/dL
  GLUCOSE: 181 mg/dL
  LACTATE DEHYDROGENASE: 88 u/L
  LIPASE: 8.33 u/L
  PHOSPHORUS: 12.33 mg/dL
  POTASSIUM: 6.09 MEQ/L
  SODIUM: 146.47 MEQ/L
  TOTAL BILIRUBIN: 0.17 mg/dL
  TOTAL PROTEIN: 6.3 G/DL
  URIC ACID: 1.43 mg/dL
[3]
  ABSOLUTE BASOPHIL: 0 CELLS/uL
  ABSOLUTE EOSINOPHIL: 72.67 CELLS/uL
  ABSOLUTE LYMPHOCYTE: 12680.33 CELLS/uL
  ABSOLUTE MONOCYTE: 379.67 CELLS/uL
  ABSOLUTE SEGMENTED NEUTROPHIL: 1067.33 CELLS/uL
  BASOPHIL: 0%
  EOSINOPHIL: 0.67%
  ERYTHROCYTE COUNT: 5.31 x10E6/uL
  HEMATOCRIT: 34.1%
  HEMOGLOBIN: 13.1 G/DL
  LEUKOCYTE COUNT: 14.2 x10E3/uL
  LYMPHOCYTE: 89.33%
  MEAN CORPUSCULAR HEMOGLOBIN: 24.67 pg
  MEAN CORPUSCULAR HEMOGLOBIN CONCENTRATION: 38.47 G/DL
  MEAN CORPUSCULAR VOLUME: 64.17 fL
  MONOCYTE: 2.33%
  NEUTROPHIL: 7.67%
  NUCLEATED RED BLOOD CELLS: 0 /100WBC
  PLATELET COUNT: 1001 x10E3/uL
  ALANINE AMINOTRANSFERASE: 51 u/L
  ALBUMIN: 4.37 G/DL
  ALKALINE PHOSPHATASE: 321 u/L
  ASPARTATE AMINOTRANSFERASE: 82.33 u/L
  BLOOD UREA NITROGEN: 17.33 mg/dL
  CARBON DIOXIDE: 29.67 mmol/L
  CHLORIDE: 105.33 MEQ/L
  CHOLESTEROL: 79.67 mg/dL
  CREATINE PHOSPHOKINASE: 347 u/L
  CREATININE: 0.16 mg/dL
  GLUCOSE: 144 mg/dL
  LACTATE DEHYDROGENASE: 167.33 u/L
  LIPASE: 13 u/L
  PHOSPHORUS: 12.4 mg/dL
  POTASSIUM: 6.56 MEQ/L
  SODIUM: 146.23 MEQ/L
  TOTAL BILIRUBIN: 0.2 mg/dL
  TOTAL PROTEIN: 6.03 G/DL
